In BindingDB's records for doi:10.1021/acs.jmedchem.1c00726 (University of Florida, 2021):

Target: 5-hydroxytryptamine receptor 2B (Homo sapiens, UniProt P41595)
Experiment: Displacement of [3H]LSD from human recombinant 5-HT2B receptor expressed in CHO cells by radioligand completion assay relative to control

5-hydroxytryptamine receptor 2B, sequence (P41595 whole entry): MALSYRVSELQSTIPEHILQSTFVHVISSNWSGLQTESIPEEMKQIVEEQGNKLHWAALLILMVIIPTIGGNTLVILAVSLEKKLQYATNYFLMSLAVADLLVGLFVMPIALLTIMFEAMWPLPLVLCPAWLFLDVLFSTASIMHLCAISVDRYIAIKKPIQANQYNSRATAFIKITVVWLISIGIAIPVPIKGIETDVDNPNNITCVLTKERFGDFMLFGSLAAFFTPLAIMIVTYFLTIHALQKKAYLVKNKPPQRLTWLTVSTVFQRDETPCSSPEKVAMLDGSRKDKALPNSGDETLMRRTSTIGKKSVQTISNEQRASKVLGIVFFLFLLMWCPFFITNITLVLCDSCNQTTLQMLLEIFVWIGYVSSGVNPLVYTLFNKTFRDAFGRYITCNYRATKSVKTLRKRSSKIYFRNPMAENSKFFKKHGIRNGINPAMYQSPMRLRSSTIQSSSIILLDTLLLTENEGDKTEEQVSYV

## COc1cc(C[C@@H](C)N)c(OC)cc1I [(R)-2-(4-iodo-2,5-dimethoxyphenyl)-1-methylethylamine]
  Ki: 2.2 nM
